In patent US10487349B2, “Use of a fluidic device” (GRADIENTECH AB, priority 2013, dated 2019):

Experiments:
E. coli K12 MG1655 = experiment: Microfluidic 3D culture matrix concentration-gradient antibiotic susceptibility test (CELLDIRECTOR Ruby); type: cell-based, Escherichia coli; conditions: E. coli K12 MG1655 in agarose 3D culture matrix; gradient ampicillin 20-0 μg/ml or spectinomycin 50-0 μg/ml
Description: Bacterium strain E. coli K12 MG1655 was cultured on a Luria broth (LB) plate. The E. coli cells were diluted by phosphate buffered saline (PBS) to OD600=0.1 as measured by a MULTISKAN® FC Microplate Photometer (Thermo Scientific). Same volumes of PBS with OD600=0.1 cells and low-melting temperature agarose were mixed together. A pipette with white tips was used to suck up 8 μl of the mixture and inject the mixture into the culture chamber of a microfluidic device CELLDIRECTOR® Ruby (Gradientech AB), see upper panel in FIG. 20. The fluid channel inputs of the microfluidic device were connected to fluid reservoirs comprising Muelle-Hinton medium and where one of the reservoirs also contained 20 μg/ml ampicillin. The speed of a pusher used to draw the medium into the fluid channels was set to 5 μl/min for 30 minutes and then to 2 μl/min for the rest of the time. […]
The pictures were cut to match a selected central portion of the culture chamber, see black box in FIGS. 17A and 18A. Image processing software was used to extract detected light intensity data from the pictures. A spatial growth situation distribution diagram was used to summarize the grey-scale values, i.e. detected light intensity values, of all the lines that are perpendicular to the direction of the gradient as the Y-axis with the concentration gradient as the X-axis. […]

[1] = in agarose matrix; cited from earlier work

| Compound | resistance of the microorganism to the test substance, from width of the border zone (E. coli K12 MG1655) | diffusion constant D [1] [cm^2/h] |
| --- | --- | --- |
| CC1(C)S[C@@H]2[C@H](NC(=O)[C@H](N)c3ccccc3)C(=O)N2[C@H]1C(=O)O [ampicillin] | no corresponding ampicillin resistance was detected | 0.016 |
| CN[C@@H]1[C@H](O)[C@H](NC)[C@H]2O[C@@]3(O)C(=O)C[C@@H](C)O[C@H]3O[C@@H]2[C@H]1O [spectinomycin] | presence of spectinomycin resistance | – |
